What was measured:
Details in all cases: 72 h
[1] = system: HepG2; experiment: drug sensitivity score (DSS) for viability; higher = more toxic; extreme values may be limits of the assay
[2] = system: U2OS; experiment: as above
[3] = system: Vero E6; experiment: as above
[4] = system: Caco-2; experiment: as above
[5] = system: Calu-3; experiment: as above
[6] = system: HepG2; experiment: relative viability EC50 (midpoint between 100% and the lowest measured viability); higher = less toxic
[7] = system: U2OS; experiment: as above
[8] = system: Vero E6; experiment: as above
[9] = system: Caco-2; experiment: as above
[10] = system: Calu-3; experiment: as above
[11] = system: HepG2; experiment: cell viability relative to DMSO; higher = less toxic
[12] = system: U2OS; experiment: as above
[13] = system: Vero E6; experiment: as above
[14] = system: Caco-2; experiment: as above
[15] = system: Calu-3; experiment: as above

Compound | drug sensitivity score [1] | drug sensitivity score [2] | drug sensitivity score [3] | drug sensitivity score [4] | drug sensitivity score [5] | relative viability EC50 [6] [µM] | relative viability EC50 [7] [µM] | relative viability EC50 [8] [µM] | relative viability EC50 [9] [µM] | relative viability EC50 [10] [µM] | cell viability ([11]; 1 nM) [%] | cell viability ([11]; 10 nM) [%] | cell viability ([11]; 100 nM) [%] | cell viability ([11]; 1000 nM) [%] | cell viability ([11]; 10000 nM) [%] | cell viability ([12]; 1 nM) [%] | cell viability ([12]; 10 nM) [%] | cell viability ([12]; 100 nM) [%] | cell viability ([12]; 1000 nM) [%] | cell viability ([12]; 10000 nM) [%] | cell viability ([13]; 1 nM) [%] | cell viability ([13]; 10 nM) [%] | cell viability ([13]; 100 nM) [%] | cell viability ([13]; 1000 nM) [%] | cell viability ([13]; 10000 nM) [%] | cell viability ([14]; 1 nM) [%] | cell viability ([14]; 10 nM) [%] | cell viability ([14]; 100 nM) [%] | cell viability ([14]; 1000 nM) [%] | cell viability ([14]; 10000 nM) [%] | cell viability ([15]; 1 nM) [%] | cell viability ([15]; 10 nM) [%] | cell viability ([15]; 100 nM) [%] | cell viability ([15]; 1000 nM) [%] | cell viability ([15]; 10000 nM) [%]
OC(CN1CCN(c2cccc(Cl)c2)CC1)C(c1ccccc1)c1ccccc1 (stereo not given) | 0 | 0 | 0 | 0 | 0 | > 10 | > 10 | > 10 | > 10 | > 10 | 103 | 102 | 92.4 | 108 | 102 | 95.2 | 97.9 | 98.2 | 95.8 | 92.8 | 95.5 | 96.9 | 88.9 | 99.7 | 104 | 93.3 | 101 | 101 | 94.4 | 105 | 102 | 110 | 98.6 | 99.9 | 104
c1ccc2c(c1)CCCc1cc(NCCN3CCOCC3)nnc1-2 | 0 | 0 | 0 | 0 | 0 | > 10 | > 10 | > 10 | > 10 | > 10 | 101 | 101 | 94.4 | 87.7 | 101 | 97.1 | 99.7 | 92.9 | 98.1 | 96.6 | 104 | 98.9 | 108 | 104 | 99 | 97.7 | 99.2 | 96.1 | 105 | 87.7 | 99.7 | 105 | 96.1 | 113 | 94.9
CC(C)(C)c1cc(C(C)(C)C)c2c(c1)C(O)(C(F)(F)F)C(=O)O2 (racemic) [rac-BHFF] | 0 | 0 | 0 | 0 | 0 | > 10 | > 10 | > 10 | > 10 | > 10 | 92.4 | 105 | 98.2 | 104 | 91.8 | 100 | 96.8 | 103 | 99.1 | 108 | 99 | 103 | 99.3 | 103 | 99 | 94.3 | 91.8 | 87.4 | 93 | 94.6 | 95.9 | 93.4 | 94.8 | 93.2 | 106
CC(=O)SC[C@@H](Cc1ccccc1)C(=O)NCC(=O)OCc1ccccc1 (racemic) [racecadotril] | 0.6 | 0 | 0 | 0 | 0 | > 10 | > 10 | > 10 | > 10 | > 10 | 105 | 101 | 88.8 | 89.7 | 102 | 101 | 96.8 | 97.4 | 98.9 | 102 | 105 | 99.3 | 94.1 | 101 | 109 | 94.4 | 95.7 | 99.7 | 92.6 | 122 | 92.8 | 96.7 | 95.5 | 105 | 108
O[C@@H]1CCCC[C@H]1N1CCC(c2ccccc2)CC1 (racemic) [vesamicol] | 0 | 0 | 0 | 0 | 0 | > 10 | > 10 | > 10 | > 10 | > 10 | 85.7 | 111 | 102 | 97.1 | 98 | 95.2 | 96.5 | 102 | 101 | 101 | 94 | 95.6 | 93.3 | 101 | 102 | 95.3 | 83.6 | 99.5 | 92.9 | 95.2 | 101 | 106 | 113 | 105 | 97.2
c1ccc2c(Cc3c[nH]c4ccccc34)c[nH]c2c1 [3,3'-diindolylmethane] | 1.1 | 0 | 0.1 | 0 | 0 | > 10 | > 10 | > 10 | > 10 | > 10 | 93.6 | 101 | 97 | 86.8 | 91.7 | 100 | 102 | 101 | 104 | 94.3 | 99 | 102 | 100 | 93.4 | 89.3 | 108 | 117 | 91.3 | 117 | 102 | 104 | 98.5 | 97.2 | 104 | 98.6
O=[N+]([O-])c1cccc2c(Br)n[nH]c12 [3-bromo-7-nitroindazole] | 0 | 0 | 0 | 0 | 0 | > 10 | > 10 | > 10 | > 10 | > 10 | 94.4 | 99 | 98.3 | 97.5 | 102 | 97.6 | 101 | 99 | 104 | 98.8 | 100 | 97.5 | 98.6 | 95.8 | 91.2 | 106 | 102 | 93.8 | 104 | 99.3 | 102 | 88.4 | 97.3 | 87 | 98.2
NS(=O)(=O)c1ccc2c(c1)C1C=CCC1C(c1ccc(Br)cc1)N2 (stereo not given) [4BP-TQS] | 0.2 | 0 | 0 | 0 | 0 | > 10 | > 10 | > 10 | > 10 | > 10 | 101 | 105 | 89.5 | 91.5 | 94 | 97.8 | 98.6 | 103 | 96.6 | 97.5 | 104 | 99.1 | 102 | 104 | 100 | 102 | 97.1 | 99.6 | 98.5 | 97.1 | 110 | 89.3 | 101 | 96.3 | 105
CCCN(CCC)[C@H]1CCc2ccc(O)cc2C1 [7-hydroxy-DPAT] | 0 | 0 | 0 | 0 | 0 | > 10 | > 10 | > 10 | > 10 | > 10 | 112 | 106 | 92.8 | 99.9 | 99.5 | 101 | 97.1 | 101 | 104 | 103 | 101 | 105 | 101 | 104 | 99.4 | 96.5 | 95.4 | 106 | 100 | 96.4 | 92.7 | 89.7 | 98.7 | 102 | 96
C/C=C1\[C@H]2C=C(C)C[C@]1(N)c1ccc(=O)[nH]c1C2 [(-)-Huperzine A] | 0 | 0 | 0 | 0 | 0 | > 10 | > 10 | > 10 | > 10 | > 10 | 106 | 97.4 | 102 | 93 | 97.5 | 95.1 | 101 | 98.8 | 103 | 98.3 | 93 | 96.8 | 98 | 90.7 | 107 | 103 | 97.7 | 90.6 | 100 | 107 | 91 | 96.7 | 96.1 | 106 | 101
COCC1(CO)C(=O)C2CCN1CC2 (stereo not given) [APR-246] | 0 | 0 | 0 | 0 | 0 | > 10 | > 10 | > 10 | > 10 | > 10 | 93 | 99.7 | 96.6 | 112 | 91.8 | 100 | 94.9 | 99.8 | 96.3 | 99.5 | 97.1 | 99.3 | 96.6 | 97.8 | 93.1 | 99.5 | 94.7 | 95.1 | 94.2 | 94.6 | 96.7 | 87.5 | 111 | 90.4 | 94.5
C=CC(=O)Nc1cccc(Nc2nc(Nc3ccc(OCCOC)cc3)ncc2F)c1 [AVL-292] | 6.8 | 6.4 | 7.7 | 7.6 | 4.4 | 1.47 | 2.39 | 1.74 | 1.47 | 2.87 | 101 | 95.7 | 101 | 80.5 | 29.7 | 100 | 100 | 94.9 | 91.5 | 9 | 96.9 | 94.5 | 94.9 | 82.5 | 11.9 | 85.2 | 90.8 | 102 | 78.3 | 21.5 | 100 | 106 | 92.2 | 97.2 | 27.2

— the supplement of paper PMC13380429
